# Like-named read-outs stand apart in the source and are kept apart here.
# Legend:
# [1] = system: Candida glabrata; test: Antifungal susceptibility testing, broth dilution (MIC/MFC); type: cell-based; conditions: C. glabrata
# Procedure: (§1) Specifically, disclosed compounds were evaluated alongside commercially available microtubulin inhibitors as well as recognized antifungal agents.
# (§2) Microorganisms against which these compounds were tested included: Candida albicans, Candida glabrata, Aspergillus fumigatus, Trichophyton rubrum, Trichophyton mentagrophytes, Epidermophyton floccosum. With the exception of Candida glabrata (one isolate), two isolates of each species were tested.
# (§3) The minimum lethal concentration (MLC) was determined by plating […] from the MIC concentration and each concentration above the MIC. […] When a MIC was obtained, a minimum fungicidal concentration (MFC) was determined to assess the fungistatic/fungicidal nature of the compound.
# [2] = system: Aspergillus fumigatus; test: as above; type: cell-based; conditions: Aspergillus fumigatus, read-out: MIC
# Procedure: as §1, §2, §3
# [3] = system: Candida albicans; test: as above; type: cell-based
# Procedure: as §1, §2, §3
# [4] = system: Trichophyton rubrum; test: as above; type: cell-based; conditions: for antifungal potency compared with griseofulvin: Trichophyton species
# Procedure: as §1, §2, §3
# [5] = system: P388 murine leukemia cells; test: Cytotoxic effect in P388 cells; type: cell-based; conditions: Mus musculus, P388, read-out: IC50 (nM) P-388; Table 2
# Text: The cytotoxic effects of phenylahistin, dehydrophenylahistin and various derivatives of dehydrophenylahistin were examined in P388 murine leukemia cells, HT-29 human colon cells, and PC-3 prostatic adenocarcinoma cells.
# [6] = system: HT-29 human colon cells; test: Tumor cytotoxicity assay, resazurin fluorescence, 48 h (Example 6); type: cell-based; conditions: for EC50: Homo sapiens; for cytotoxic activity against HT-29 cells: in words
# [7] = system: Trichophyton mentagrophytes; test: Antifungal susceptibility testing, broth dilution (MIC/MFC); type: cell-based; conditions: in words
# Procedure: Specifically, disclosed compounds were evaluated alongside commercially available microtubulin inhibitors as well as recognized antifungal agents. […].
# as §2
# Drug concentrations were 0.03-16 μg/ml for the investigational compounds, 0.015-8 μg/ml for itraconazole and griseofulvin.
# The minimum lethal concentration (MLC) was determined by plating […] from the MIC concentration and each concentration above the MIC. […] When a MIC was obtained, a minimum fungicidal concentration (MFC) was determined to assess the fungistatic/fungicidal nature of the compound. […] The compound is scored as fungistatic if the cells are able to resume growth and fungicidal if no regrowth is possible because the compound had killed the organisms.
# [8] = system: MES-SA/Dx5 multidrug resistant; test: Cell growth inhibition assay, resazurin (Example 11); type: cell-based, human
# Procedure: (§4) Human uterine sarcoma (MES-SA; CRL-1976), its multidrug resistant derivative (MES-SA/Dx5; CRL-1977), human acute promyelocytic leukemia cells (HL-60; CCL-240) and its multidrug resistant derivative (HL-60/MX2; CRL-2257) were purchased from ATCC and maintained in appropriate culture media. The cells were cultured in an incubator at 37° C. in 5% CO2 and 95% humidified air.
# (§5) For cell growth inhibition assays, MES-SA and MES-SA/Dx5 cells were both seeded at 3×10^3 cells/well in 90 μl complete media into 96 well (Corning; 3904) black-walled, clear-bottom tissue culture plates and the plates were incubated overnight to allow cells to establish and enter log phase growth. HL-60 and HL-60/MX2 cells were both seeded at 5×10^4 cells/well in 90 μl complete media into 96 well plates on the day of compound addition. 20 mM stock solutions of the compounds were prepared in 100% DMSO and stored at −80° C. […] Ten μl volumes of the 10× serial dilutions were added to the test wells in triplicate and the plates returned to the incubator for 48 hours. The final concentration of DMSO was 0.25% in all samples.
# (§6) Following 48 hours of drug exposure, 10 μl of 0.2 mg/ml resazurin (obtained from Sigma-Aldrich Chemical Co.) in Mg^2+, Ca^2+ free phosphate buffered saline was added to each well and the plates were returned to the incubator for 3-6 hours. […] Resazurin dye in medium without cells was used to determine the background, which was subtracted from the data for all experimental wells.
# (§7) The multidrug resistant MES-SA/Dx5 tumor cell line was derived from the human uterine sarcoma MES-SA tumor cell line and expresses elevated P-Glycoprotein (P-gp), an ATP dependent efflux pump. The data in Table 19 summarize the growth inhibitory effects of NPI-2421, NPI-2463, NPI-2503, NPI-2504 and NPI-2506 against MES-SA and its multidrug resistant derivative MES-SA/Dx5. Paclitaxel, a known substrate of the P-gp pump was included as a control.
# [9] = system: HT-29 human colorectal carcinoma cells; test: Cell growth inhibition assay, resazurin (Table 3.2); type: cell-based; conditions: Table 3.2, HT-29 cells, read-out: EC50 (M) Mean
# Procedure: The cytotoxic effects of various derivatives of dehydrophenylahistin against HT-29 human colorectal carcinoma cells were determined.
# HT-29 cells (ATCC; HTB-38) were maintained in ATCC recommended culture media and cultured in an incubator at 37° C. in 5% CO2 and 95% humidified air.
# For cell growth inhibition assays, HT-29 cells were seeded at 5×10^3 cells/well in 90 μl complete media into a Corning 3904 black-walled, clear-bottom tissue culture plates and the plates were incubated overnight to allow cells to establish and enter log phase growth. 20 mM stock solutions of compounds were prepared in 100% DMSO and stored at −80° C. 10× concentrated serial dilutions of the compounds were prepared in culture medium for final concentrations ranging from 20 μM to […]. Ten μl volumes of the 10× serial dilutions were added to the test wells in triplicate and the plates returned to the incubator for 48 hours. The final concentration of DMSO was 0.25% in all samples.
# Following 48 hours of drug exposure, 10 μl of 0.2 mg/ml resazurin (obtained from Sigma-Aldrich Chemical Co.) in Mg^2+, Ca^2+ free phosphate buffered saline was added to each well and the plates were returned to the incubator for 3-4 hours. […] Resazurin dye in medium without cells was used to determine the background, which was subtracted from the data for all experimental wells.
# [10] = system: HL-60 human acute promyelocytic leukemia cells; test: Cell growth inhibition assay, resazurin (Example 11); type: cell-based; conditions: mean values of two independent experiments
# Procedure: as §4, §5, §6
# (§8) HL-60/MX2 is a multidrug resistant tumor cell line derived from the human promyelocytic leukemia cell line, HL-60 and expresses reduced topoisomerase II activity. The data presented in Table 20 summarize the growth inhibitory effects of NPI-2421, NPI-2463, NPI-2503, NPI-2504 and NPI-2506 against HL-60 and its multidrug resistant derivative HL-60/MX2. Mitoxantrone, the topoisomerase II targeting agent was included as a control.
# [11] = system: HL-60/MX2 multidrug resistant; test: as above; type: cell-based, human
# Procedure: as §4, §5, §6, §8
# [12] = system: MES-SA human uterine sarcoma; test: as above; type: cell-based; conditions: mean ± standard deviation of three independent experiments
# Procedure: as §4, §5, §6, §7
# [13] = system: HT-29 human colorectal carcinoma cells; test: Cytotoxic effect against HT-29 cells (Table 30); type: cell-based
# Procedure: The following additional dehydrophenylahistin derivatives were synthesized according to the methods described herein and their cytotoxic effect against HT-29 human colorectal carcinoma cells were determined.
# [14] = system: MES-SA/Dx5 (Taxol Resistant) human uterine sarcoma; test: Drug resistant cell line pair, cytotoxicity (Example 10B); type: cell-based; conditions: vs MES-SA
# Text: 1) Human Uterine Sarcoma Tumor Cell Line Pair: MES-SA (Taxol Sensitive) and MES-SA/Dx5 (Taxol Resistant).
# [15] = Nakaseomyces glabratus, read-out: MIC
# [16] = Candida albicans, C. albicans 90028, read-out: MIC
# [17] = HT-29 cells, read-out: EC50 (M) Mean
compound,measurement,setting,value
"C=CC(C)(C)c1[nH]cnc1/C=C1\NC(=O)[C@H](Cc2ccccc2)NC1=O [(−)-Phenylahistin, reference compound]",MIC,[1]; [15],> 70 µg/mL
same,MIC,[2]; A. fumigatus isolate #1,> 16 µg/mL
same,MIC,[2]; A. fumigatus isolate #2,> 16 µg/mL
same,MIC,[3]; [16],> 70 µg/mL
same,antifungal potency versus T. rubrum,[4]; in words,significantly less potent than the other compounds
same,IC50,[5],833 ± 153 nM
same,EC50,"[6]; HT-29, Table 2, read-out: EC50 (nM) HT-29",1600 nM
same,antifungal potency versus the sensitive T. mentagrophytes isolate,[7],weaker but more comparable to the others
"CC(C)(C)c1ocnc1/C=c1\[nH]c(=O)/c(=C/c2c(F)ccc(F)c2F)[nH]c1=O [Compound 2506, tBu-oxadelta-PLH-2,3,6-trifluoro]",EC50,"[8]; Homo sapiens, MES-SA/Dx5, mean ± standard deviation of three independent experiments",27 ± 6 nM
same,cytotoxic activity against both MES-SA and MES-SA/Dx5,[8]; in words,retained equivalent cytotoxic activity
same,Fold change,[8]; ratio of EC50 values (MES-SA/Dx5:MES-SA),1.2
same,EC50,[9],2.4e-08 M
same,EC50,[10],32 nM
same,EC50,"[11]; Homo sapiens, HL60/MX2, HL-60/MX2, mean values of two independent experiments",31 nM
same,cytotoxic activity against both HL-60 and HL-60/MX2,[11]; in words,retained cytotoxic activity
same,Fold change,[11]; ratio of EC50 values (HL-60/MX2:HL-60),1.0
same,EC50,[12],22 ± 3 nM
CC(C)(C)c1[nH]cnc1/C=c1\[nH]c(=O)/c(=C/c2cccc(OP(=O)(O)O)c2)[nH]c1=O [Compound 2521],EC50,"[13]; HT-29, read-out: EC50 (M) Mean",2.8e-07 M
COC(=O)c1cccc(/C=c2\[nH]c(=O)/c(=C/c3nc[nH]c3C(C)(C)C)[nH]c2=O)c1 [Compound 2527],EC50,"[13]; HT-29, read-out: EC50 (M) Mean",1.9e-07 M
CC(C)(C)c1[nH]cnc1/C=c1\[nH]c(=O)/c(=C/c2cccc(C(=O)O)c2)[nH]c1=O [Compound 2528],EC50,[13]; [17],> 2e-05 M
CC(C)(C)c1[nH]cnc1/C=c1\[nH]c(=O)/c(=C/c2cccc(C(N)=O)c2)[nH]c1=O [Compound 2529],EC50,"[13]; HT-29, read-out: EC50 (M) Mean",5e-06 M
CC(C)(C)c1ocnc1/C=c1\[nH]c(=O)/c(=C/c2cccc(C(N)=O)c2)[nH]c1=O [Compound 2533],EC50,[13]; [17],1.8e-06 M
CC(C)(C)c1ocnc1/C=c1\[nH]c(=O)/c(=C/c2cccc(C(=O)c3ccc(CN)cc3)c2)[nH]c1=O [Compound 2534],EC50,"[13]; HT-29, read-out: EC50 (M) Mean",5.3e-07 M
CC(C)(C)c1ocnc1/C=c1\[nH]c(=O)/c(=C/c2cccc(C(=O)c3ccc(CNC(=O)CCCCCNC(=O)CCCCCNC(=O)CCCC[C@@H]4SC[C@H]5NC(=O)N[C@@H]45)cc3)c2)[nH]c1=O [Compound 2545],EC50,[13]; [17],1.1e-06 M
"COc1cc(/C=c2\[nH]c(=O)/c(=C/c3nc[nH]c3C(C)(C)C)[nH]c2=O)cc(OC)c1OC [KPU-11, tBu-ΔPLH-3,4,5-triOMe]",antifungal potency compared with griseofulvin,[4],equivalent in potency or in some cases more potent than griseofulvin
same,EC50,"[6]; HT-29, read-out: EC50 HT-29, Table 3, cells printed in μM",> 20000 nM
same,cytotoxic activity against HT-29 cells,[6],also showed activity
"COc1ccc(/C=c2\[nH]c(=O)/c(=C/c3nc[nH]c3C(C)(C)C)[nH]c2=O)c(OC)c1OC [KPU-17, tBu-ΔPLH-2,3,4-triOMe]",antifungal potency compared with griseofulvin,[4],equivalent in potency or in some cases more potent than griseofulvin
same,EC50,"[6]; HT-29, Table 3, read-out: EC50 (nM) HT-29",4060 nM
same,cytotoxic activity against HT-29 cells,[6],also showed activity
"C[C@@H]1[C@H](O)[C@@H](C)/C=C/C=C/C=C/C=C/C=C/C=C/C=C/[C@H](O[C@@H]2O[C@H](C)[C@@H](O)[C@H](N)[C@@H]2O)C[C@@H]2O[C@](O)(C[C@@H](O)C[C@@H](O)[C@H](O)CC[C@@H](O)C[C@@H](O)CC(=O)O[C@H]1C)C[C@H](O)[C@H]2C(=O)O [amphotericin B, Amphotericin B]",MFC,[1],1 µg/mL
same,MIC,[1],1 µg/mL
same,MFC,[3]; C. albicans 10231,0.5 µg/mL
same,MIC,[3]; C. albicans 10231,0.5 µg/mL
same,MFC,[3]; C. albicans 90028,0.5 µg/mL
same,MIC,[3]; C. albicans 90028,0.5 µg/mL
"CCCCNC(=O)n1c(NC(=O)OC)nc2ccccc21 [benomyl, Benomyl]",MFC,"[1]; Nakaseomyces glabratus, read-out: MFC",> 512 µg/mL
same,MIC,[1]; [15],64 µg/mL
same,MFC,"[3]; Candida albicans, C. albicans 90028, read-out: MFC",> 512 µg/mL
same,MIC,[3]; [16],64 µg/mL
"COc1cccc2c1C(=O)c1c(O)c3c(c(O)c1C2=O)C[C@@](O)(C(=O)CO)C[C@@H]3O[C@H]1C[C@H](N)[C@H](O)[C@H](C)O1 [doxorubicin, Doxorubicin, reference compound]",reduced susceptibility of the MES-SA/DX5 cell line,[14],34 fold
"COc1cc([C@@H]2c3cc4c(cc3[C@@H](O[C@@H]3O[C@@H]5CO[C@@H](C)O[C@H]5[C@H](O)[C@H]3O)[C@H]3COC(=O)[C@H]23)OCO4)cc(OC)c1O [etoposide, Etoposide, reference compound]",reduced susceptibility of the MES-SA/DX5 cell line,[14],60 fold
"CCC(C)n1ncn(-c2ccc(N3CCN(c4ccc(OCC5COC(Cn6cncn6)(c6ccc(Cl)cc6Cl)O5)cc4)CC3)cc2)c1=O (stereo not shown) [itraconazole, Itraconazole, reference compound]",MIC,[2]; A. fumigatus isolate #1,1 µg/mL
